According to patent US8664214B2, “Small molecule potentiators of metabotropic glutamate receptors I” (AbbVie Deutschland GmbH & Co. KG, priority 2010, dated 2014):

Target: T1, human mGlu2 receptor (Homo sapiens, UniProt Q14416)
T1 construct: V5/His (named only as part of the vector); expressed in transfected cells; host or cells: HEK293
Experiment: FLIPR intracellular Ca2+ assay, potentiation of 1 μM glutamate in HEK293 cells expressing hmGlu2, rGLAST and Galpha16
Assay type: cell-based
Settings: HEK293 hmGlu2 clone
Text: The compounds of the present invention can be tested e.g. by evaluating intracellular Ca^2+ concentrations in cells permanently expressing human mGlu receptor, the rat glutamate transporter rGLAST and the Galpha16 subunit of the G-protein complex under standard conditions in a fluorometric imaging plate reader (FLIPR, Molecular Devices, Union City, Calif. 94587, USA) by measuring the response of the cells to a test compound in the absence of presence of glutamate. The FLIPR assay is a common functional assay to monitor native or recombinant Galphaq-coupled receptors, and native or recombinant receptors normally linked to other G-protein signalling cascades, which are coupled to calcium through co-expression of an alpha subunit of a promiscuous or chimeric G-protein. In the assay the increase of intracellular calcium is measured through a calcium-dependent fluorescent dye (e.g. Fluo-4 AM) in the FLIPR instrument.
For the purpose of the present study, a cell line permanently expressing a human mGlu receptor, such as the mGlu2 receptor, the rat glutamate transporter rGLAST and the GalphaG16 may be generated by transfection as described in the examples. For selection of a suitable cell clone and also the subsequent measurements, the selected clone the cells will be plated on suitable multiwell plates in a suitable medium (e.g. DMEM Glutamax (GIBCO # 21885-025)/10% dialyzed FCS). Cells may be selected by gentamycin treatment as described in the examples. Cells will then be loaded with a suitable Ca^2+ sensitive fluorescence dye, e.g. with 2 μM Fluo-4 AM (Molecular Probes, F14201). Cells will then be washed with a suitable buffer (e.g. HEPES) and the thus treated plates will be measured in a fluorometric imaging plate reader (e.g. FLIPR, Molecular Devices, Union City, Calif. 94587, USA).
The compounds of the present invention were tested in the above-described FLIPR assay using the selected cell clone. Increased intracellular calcium levels were quantified following addition of test compound (agonism), as well as following addition of a submaximal concentration of glutamate (potentiation).
For the determination of the effect of the test compound by itself (agonism) or by increasing the response to a submaximal concentration (e.g. 1 μM) of glutamate (potentiation), the resulting signal is determined by subtraction of the background fluorescence from the maximal fluorescent peak height of the respective response. In the FLIPR instrument the compound is given to the cell and its fluorescence response quantified by the FLIPR instrument (agonism). The concentration at which the compound exerts half its maximal effect is named the ‘effective concentration 50’ or ‘EC50’. The maximal effect induced by the test substance is normalized to the maximal effect exerted by 100 μM glutamate (set at 100%).
After addition of the test compound to the plate, a submaximal concentration of glutamate (e.g. 1 μM glutamate) will be added. A potentiator enhances the response of the receptor to glutamate. The response to glutamate in the presence of test compound is quantified. The concentration at which the test compound is able to exert half its maximal potentiation effect to glutamate is named the ‘EC50’. The maximal response to the submaximal concentration of glutamate (e.g. 1 micromolar glutamate) in the presence of test compound is normalized to the maximal effect exerted by 100 micromolar glutamate (set at 100%). Least squares curve fitting with a four-parameter equation is then applied to the resulting dose-response curve to determine the resulting EC50 values (Graph Pad Prism).
For the purpose of the present study, a cell line permanently expressing the human mGlu2 receptor, the rat glutamate transporter rGLAST and the alpha subunit of G16 was generated by transfection. […]

T1 sequence (Q14416 19-872): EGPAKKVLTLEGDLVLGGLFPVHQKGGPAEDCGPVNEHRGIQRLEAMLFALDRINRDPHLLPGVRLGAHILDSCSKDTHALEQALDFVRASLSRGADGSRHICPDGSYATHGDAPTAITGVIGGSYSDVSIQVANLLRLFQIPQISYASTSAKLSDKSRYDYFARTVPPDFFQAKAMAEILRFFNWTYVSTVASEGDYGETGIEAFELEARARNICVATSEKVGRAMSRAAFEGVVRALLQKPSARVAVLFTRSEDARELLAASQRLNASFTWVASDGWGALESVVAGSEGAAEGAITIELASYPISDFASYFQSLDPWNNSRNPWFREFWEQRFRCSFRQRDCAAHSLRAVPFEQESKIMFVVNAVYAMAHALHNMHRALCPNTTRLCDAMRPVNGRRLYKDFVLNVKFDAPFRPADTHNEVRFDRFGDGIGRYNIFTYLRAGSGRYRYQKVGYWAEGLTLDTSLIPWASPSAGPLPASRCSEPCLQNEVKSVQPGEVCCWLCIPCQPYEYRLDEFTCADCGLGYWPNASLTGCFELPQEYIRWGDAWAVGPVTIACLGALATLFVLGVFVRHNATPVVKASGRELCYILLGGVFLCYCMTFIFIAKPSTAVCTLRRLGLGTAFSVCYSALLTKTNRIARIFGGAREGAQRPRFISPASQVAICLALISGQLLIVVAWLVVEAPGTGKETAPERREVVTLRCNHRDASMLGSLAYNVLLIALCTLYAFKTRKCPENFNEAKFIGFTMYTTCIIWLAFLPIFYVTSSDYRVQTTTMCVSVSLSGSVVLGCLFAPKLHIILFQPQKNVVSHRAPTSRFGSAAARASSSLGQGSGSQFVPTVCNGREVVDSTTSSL

Row | Compound | EC50 [nM]
1 | CCCCN1Cc2cc(NCc3cnccc3Nc3ccccc3)ccc2C1=O [Example 19, 2-butyl-5-((4-(phenylamino)pyridin-3-yl)methylamino)isoindolin-1-one] | 500 to 2000
2 | CCCCN1Cc2cc(NCc3c(C(F)(F)F)ccnc3Cl)ccc2C1=O [Example 17, 2-butyl-5-((2-chloro-4-(trifluoromethyl)pyridin-3-yl)methylamino)-isoindolin-1-one] | < 500
3 | CCCCN1Cc2cc(NCc3ccc(Cl)nc3OC)ccc2C1=O [Example 36, 2-butyl-5-{[(6-chloro-2-methoxypyridin-3-yl)methyl]amino}-2,3-dihydro-1H-isoindol-1-one] | 500 to 2000
4 | CCCCN1Cc2cc(NCc3cnccc3-c3ccc(C#N)cc3)ccc2C1=O [Example 20, 4-(3-((2-butyl-1-oxoisoindolin-5-ylamino)methyl)pyridin-4-yl)benzonitrile] | < 500
5 | CCCCN1Cc2cc(NCc3ccc(OC)nc3Cl)ccc2C1=O [Example 37, 2-butyl-5-{[(2-chloro-6-methoxypyridin-3-yl)methyl]amino}-2,3-dihydro-1H-isoindol-1-one] | 500 to 2000
6 | Cc1cc(-c2ccccc2)c(COc2ccc3c(c2)CN(CCOC(F)(F)F)C3=O)c(C)n1 [Example 2, 5-((2,6-dimethyl-4-phenylpyridin-3-yl)methoxy)-2-(2-(trifluoromethoxy)ethyl)isoindolin-1-one] | < 500
7 | CCCCN1Cc2cc(NCc3cccnc3Cl)ccc2C1=O [Example 38, 2-butyl-5-{[(2-chloropyridin-3-yl)methyl]amino}-2,3-dihydro-1H-isoindol-1-one] | 2000 to 10000
8 | CCN1Cc2cc(OCc3c(-c4ccccc4)cc(C)nc3C)ccc2C1=O [Example 11, 5-(2,6-Dimethyl-4-phenyl-pyridin-3-ylmethoxy)-2-ethyl-2,3-dihydroisoindol-1-one] | < 500
9 | CCCCN1Cc2cc(NCc3cnccc3-c3ccccc3)ccc2C1=O [Example 15, 2-butyl-5-((4-phenylpyridin-3-yl)methylamino)isoindolin-1-one] | < 500
10 | CCCN1Cc2cc(OCc3cnccc3-c3ccccc3)ccc2C1=O [Example 6, 5-(4-Phenyl-pyridin-3-ylmethoxy)-2-propyl-2,3-dihydro-isoindol-1-one] | < 500
11 | O=C1c2ccc(OCc3cnccc3-c3ccccc3)cc2CN1CCOC(F)(F)F [Example 7, 5-(4-Phenyl-pyridin-3-ylmethoxy)-2-(2-trifluoromethoxy-ethyl)-2,3-dihydro-isoindol-1-one] | < 500
12 | CCCCN1Cc2cc(OCc3c(-c4ccccc4)cc(C)nc3C)ccc2C1=O [Example 1, 2-butyl-5-((2,6-dimethyl-4-phenylpyridin-3-yl)methoxy)isoindolin-1-one] | < 500
13 | CCCCN1Cc2cc(NCc3cnccc3NCc3ccccc3)ccc2C1=O [Example 42, 5-((4-(benzylamino)pyridin-3-yl)methylamino)-2-butylisoindolin-1-one] | 2000 to 10000
14 | Cc1cc(-c2ccccc2)c(COc2ccc3c(c2)CN(CCOC(F)(F)F)C3=O)c(C)[n+]1[O-] [Example 44, 2,6-dimethyl-3-((1-oxo-2-(2-(trifluoromethoxy)ethyl)-isoindolin-5-yloxy)-methyl)-4-phenylpyridine 1-oxide] | < 500
15 | CCCCN1Cc2cc(NCc3cccnc3)ccc2C1=O [Example 22, 2-butyl-5-[(pyridin-3-ylmethyl)amino]-2,3-dihydro-1H-isoindol-1-one] | 2000 to 10000
16 | CCCCN1Cc2cc(NCc3cnccc3C(F)(F)F)ccc2C1=O [Example 14, 2-butyl-5-((4-(trifluoromethyl)pyridin-3-yl)methylamino)isoindolin-1-one] | < 500

Second part, the compound after the results:

Row | EC50 [nM] | Compound
17 | < 500 | O=C1c2c(Cl)cc(NCc3c(C(F)(F)F)ccnc3Cl)cc2CN1C1CC1 [Example 24, 7-chloro-5-({[2-chloro-4-(trifluoromethyl)pyridin-3-yl]methyl}amino)-2-cyclopropyl-2,3-dihydro-1H-isoindol-1-one]
18 | 500 to 2000 | CCCCN1Cc2cc(NCc3cnccc3NC(=O)C(C)(C)C)ccc2C1=O [Example 43, N-(3-((2-butyl-1-oxoisoindolin-5-ylamino)methyl)pyridin-4-yl)pivalamide]
19 | < 500 | CCCCN1Cc2cc(OCc3c(I)ccnc3Cl)ccc2C1=O [Example 5, 2-butyl-5-((2-chloro-4-iodopyridin-3-yl)methoxy)isoindolin-1-one]
20 | 500 to 2000 | CCCCN1Cc2cc(NCc3ccc(Br)nc3Cl)ccc2C1=O [Example 34, 5-{[(6-bromo-2-chloropyridin-3-yl)methyl]amino}-2-butyl-2,3-dihydro-1H-isoindol-1-one]
21 | 2000 to 10000 | CCCN1Cc2cc(OCc3cnccc3NC(=O)OC(C)(C)C)ccc2C1=O [Example 8, [3-(1-oxo-2-propyl-2,3-dihydro-1H-isoindol-5-yloxymethyl)-pyridin-4-yl]-carbamic acid tert-butyl ester]
22 | < 500 | Cc1cc(-c2ccccc2)c(CNc2cc(Cl)c3c(c2)CN(C2CC2)C3=O)c(C)n1 [Example 23, 7-chloro-2-cyclopropyl-5-{[(2,6-dimethyl-4-phenylpyridin-3-yl)methyl]amino}-2,3-dihydro-1H-isoindol-1-one]
23 | 500 to 2000 | COCCN1Cc2cc(NCc3c(C(F)(F)F)ccnc3Cl)cc(C)c2C1=O [Example 39]
24 | < 500 | CCCCN1Cc2cc(NCc3cnccc3-c3ccc(C(F)(F)F)cc3)ccc2C1=O [Example 21, 2-butyl-5-((4-(4-(trifluoromethyl)phenyl)pyridin-3-yl)methylamino)-isoindolin-1-one]
25 | 500 to 2000 | CCCCN1Cc2cc(NCc3c(C)ccnc3Cl)ccc2C1=O [Example 33, 2-butyl-5-{[(2-chloro-4-methylpyridin-3-yl)methyl]amino}-2,3-dihydro-1H-isoindol-1-one]
26 | < 500 | CCCCN1Cc2cc(OCc3c(-c4ccccc4)ccnc3Cl)ccc2C1=O [Example 4, 2-butyl-5-((2-chloro-4-phenylpyridin-3-yl)methoxy)isoindolin-1-one]
27 | 500 to 2000 | CCCCN1Cc2cc(NCc3cnccc3N3CCOCC3)ccc2C1=O [Example 25, 2-butyl-5-({[4-(morpholin-4-yl)pyridin-3-yl]methyl}amino)-2,3-dihydro-1H-isoindol-1-one]
28 | < 500 | CCCCN1Cc2cc(NCc3c(Cl)ccnc3Cl)ccc2C1=O [Example 35, 2-butyl-5-{[(2,4-dichloropyridin-3-yl)methyl]amino}-2,3-dihydro-1H-isoindol-1-one]
29 | < 500 | CCCCN1Cc2cc(NCc3c(-c4ccccc4)cc(C)nc3C)ccc2C1=O [Example 13, 2-butyl-5-((2,6-dimethyl-4-phenylpyridin-3-yl)methylamino)isoindolin-1-one]
30 | < 500 | CCCCN1Cc2cc(NCc3cnccc3Oc3ccccc3)ccc2C1=O [Example 16, 2-butyl-5-((4-phenoxypyridin-3-yl)methylamino)isoindolin-1-one]
31 | 500 to 2000 | CCCN1Cc2cc(OCc3cnccc3Oc3ccccc3)ccc2C1=O [Example 3, 5-((4-phenoxypyridin-3-yl)methoxy)-2-propylisoindolin-1-one]
32 | 2000 to 10000 | CCCCN1Cc2cc(NCc3cnccc3N3CCN(C)CC3)ccc2C1=O [Example 26, 2-butyl-5-({[4-(4-methylpiperazin-1-yl)pyridin-3-yl]methyl}amino)-2,3-dihydro-1H-isoindol-1-one]
